Molecular target: ATP-binding cassette sub-family C member 2 (Rattus norvegicus, UniProt Q63120)
Test: TP_TRANSPORTER: inhibition of DNP-SG uptake in bile canalicular membrane vesicles from SD rat
Format: functional, cell membranes, Sprague-Dawley, Bile canalicular membrane vesicle

Sequence of ATP-binding cassette sub-family C member 2 (Q63120 whole entry): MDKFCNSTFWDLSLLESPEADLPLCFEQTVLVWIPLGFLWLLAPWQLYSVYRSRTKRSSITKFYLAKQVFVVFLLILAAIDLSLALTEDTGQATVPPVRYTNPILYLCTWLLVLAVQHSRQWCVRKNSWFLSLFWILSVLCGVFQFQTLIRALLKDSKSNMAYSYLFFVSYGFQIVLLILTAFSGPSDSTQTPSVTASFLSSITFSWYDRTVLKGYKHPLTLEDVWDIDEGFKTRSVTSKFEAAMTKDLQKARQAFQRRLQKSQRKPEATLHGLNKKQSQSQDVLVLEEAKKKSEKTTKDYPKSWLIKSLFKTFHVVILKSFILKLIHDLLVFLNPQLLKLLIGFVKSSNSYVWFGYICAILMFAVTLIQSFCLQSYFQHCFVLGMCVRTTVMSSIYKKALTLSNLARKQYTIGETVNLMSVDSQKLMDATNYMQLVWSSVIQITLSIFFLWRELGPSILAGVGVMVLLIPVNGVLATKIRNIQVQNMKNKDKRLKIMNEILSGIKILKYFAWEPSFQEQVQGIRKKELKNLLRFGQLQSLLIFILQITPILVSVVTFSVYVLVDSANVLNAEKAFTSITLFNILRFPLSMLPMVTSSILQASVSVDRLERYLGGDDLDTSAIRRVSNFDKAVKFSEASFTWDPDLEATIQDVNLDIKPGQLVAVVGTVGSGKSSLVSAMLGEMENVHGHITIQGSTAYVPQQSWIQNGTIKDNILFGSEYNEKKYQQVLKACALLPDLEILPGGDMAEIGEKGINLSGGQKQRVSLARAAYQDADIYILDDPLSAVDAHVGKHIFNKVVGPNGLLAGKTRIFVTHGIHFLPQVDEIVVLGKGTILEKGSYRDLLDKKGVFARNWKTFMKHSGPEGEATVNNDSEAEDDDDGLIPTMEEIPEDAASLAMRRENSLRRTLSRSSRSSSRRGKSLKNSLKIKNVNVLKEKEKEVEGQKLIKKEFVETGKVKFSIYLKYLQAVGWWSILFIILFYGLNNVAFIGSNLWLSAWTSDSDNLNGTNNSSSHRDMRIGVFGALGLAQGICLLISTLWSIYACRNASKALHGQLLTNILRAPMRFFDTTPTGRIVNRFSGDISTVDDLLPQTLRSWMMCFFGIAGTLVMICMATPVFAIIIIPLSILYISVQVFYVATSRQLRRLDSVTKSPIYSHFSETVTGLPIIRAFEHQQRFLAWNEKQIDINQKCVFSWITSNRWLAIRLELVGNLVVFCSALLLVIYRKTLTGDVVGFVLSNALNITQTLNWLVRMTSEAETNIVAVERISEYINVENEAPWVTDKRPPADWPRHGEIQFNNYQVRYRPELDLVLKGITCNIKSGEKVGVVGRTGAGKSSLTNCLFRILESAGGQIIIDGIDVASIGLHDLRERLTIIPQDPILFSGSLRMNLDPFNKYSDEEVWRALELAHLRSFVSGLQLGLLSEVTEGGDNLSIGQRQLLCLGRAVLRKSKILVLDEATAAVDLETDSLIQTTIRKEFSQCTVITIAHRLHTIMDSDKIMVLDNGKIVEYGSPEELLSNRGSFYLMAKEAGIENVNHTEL

SMILES	Ki
Nc1nc(N)c2nc(CN3CCOc4cc(C(=O)NC(CCCC(=O)O)C(=O)O)ccc43)cnc2n1 (stereo not given)	204 µM
Nc1nc(N)c2nc(CN3CCOc4cc(C(=O)NC(CCC(=O)O)C(=O)O)ccc43)cnc2n1 (stereo not given)	311 µM
Nc1nc(N)c2nc(CN3CCSc4cc(C(=O)NC(CCC(=O)O)C(=O)O)ccc43)cnc2n1 (stereo not given)	137 µM
Cc1cc(C(=O)NC(CCC(=O)O)C(=O)O)ccc1N(C)Cc1cnc2nc(N)nc(N)c2n1 (stereo not given)	150 µM
Cc1cc(C(=O)NC(CCC(=O)O)C(=O)O)cc2c1N(Cc1cnc3nc(N)nc(N)c3n1)CC2 (stereo not given)	173 µM
Nc1nc(N)c2nc(CN3CCSc4cc(C(=O)N[C@@H](CCCC(=O)N[C@@H](CCC(=O)O)C(=O)O)C(=O)O)ccc43)cnc2n1	223 µM
CC(C)CC(NC(=O)c1ccc(N(C)Cc2cnc3nc(N)nc(N)c3n2)cc1)C(=O)O (stereo not given)	308 µM
CCN(Cc1cnc2nc(N)nc(N)c2n1)c1ccc(C(=O)NC(CCCNC(=O)c2ccccc2)C(=O)O)cc1 (stereo not given)	32.5 µM
Cc1cc(C(=O)NC(CCC(=O)O)C(=O)O)ccc1NCc1cnc2nc(N)nc(N)c2n1 (stereo not given)	382 µM
Cc1cc(C(=O)NC(CCC(=O)O)C(=O)O)cc(C)c1N(C)Cc1cnc2nc(N)nc(N)c2n1 (stereo not given)	39.2 µM
CN(Cc1cnc2nc(N)nc(N)c2n1)c1ccc(C(=O)NC(CCCNC(=O)c2ccccc2)C(=O)O)cc1 (stereo not given)	48.7 µM
CN(Cc1cnc2nc(N)nc(N)c2n1)c1ccc(C(=O)NC(CCC(=O)NC(CCC(=O)NC(CCC(=O)NC(CCC(=O)N[C@@H](CCC(=O)O)C(=O)O)C(=O)O)C(=O)O)C(=O)O)C(=O)O)cc1 (stereo not given in full)	501 µM
CCC(C)C(NC(=O)c1ccc(N(C)Cc2cnc3nc(N)nc(N)c3n2)cc1)C(=O)O (stereo not given)	56.9 µM
CC(C)N(Cc1cnc2nc(N)nc(N)c2n1)c1ccc(C(=O)N2C[C@H](O)C[C@H]2C(=O)O)cc1	784 µM
CN(Cc1cnc2nc(N)nc(N)c2n1)c1ccc(C(=O)NC(CCC(=O)NC(CCC(=O)N[C@@H](CCC(=O)O)C(=O)O)C(=O)O)C(=O)O)cc1 (stereo not given in full)	838 µM
CCN(Cc1cnc2nc(N)nc(N)c2n1)c1ccc(C(=O)NC(CCC(=O)O)C(=O)O)cc1C (stereo not given)	98.3 µM
CN(Cc1cnc2nc(N)nc(N)c2n1)c1ccc(C(=O)N2C[C@H](O)C[C@H]2C(=O)O)cc1	> 1000 µM
CCCN(Cc1cnc2nc(N)nc(N)c2n1)c1ccc(C(=O)NC(CCCNC(=O)c2ccccc2)C(=O)O)cc1 (stereo not given)	11.4 µM
Cc1cc(C(=O)NC(CCCC(=O)O)C(=O)O)ccc1N(C)Cc1cnc2nc(N)nc(N)c2n1 (stereo not given)	133 µM
C=CCN(Cc1cnc2nc(N)nc(N)c2n1)c1ccc(C(=O)NC(CCC(=O)O)C(=O)O)cc1 (stereo not given)	136 µM
CC(C)N(Cc1cnc2nc(N)nc(N)c2n1)c1ccc(C(=O)NC(CCCNC(=O)c2ccccc2)C(=O)O)cc1 (stereo not given)	14.8 µM
Nc1nc(N)c2nc(CN3CCSc4cc(C(=O)NC(CCCC(=O)O)C(=O)O)ccc43)cnc2n1 (stereo not given)	159 µM
CCCN(Cc1cnc2nc(N)nc(N)c2n1)c1ccc(C(=O)NC(CCC(=O)O)C(=O)O)cc1 (stereo not given)	154 µM
CC(C)N(Cc1cnc2nc(N)nc(N)c2n1)c1ccc(C(=O)NC(CCC(=O)O)C(=O)O)cc1 (stereo not given) [ISOAMINOPTERIN]	173 µM
CN(Cc1cnc2nc(N)nc(N)c2n1)c1ccc(C(=O)N[C@@H](CCC(=O)O)C(=O)O)cc1 [METHOTREXATE]	462 µM

Reference: ChEMBL document CHEMBL2074531, “Physicochemical parameters responsible for the affinity of methotrexate analogs for rat canalicular multispecific organic anion transporter (cMOAT/MRP2)” (Pharm Res, 2001)
